Laboratory results published in ChEMBL document CHEMBL2331210, “New 2-benzylsulfanyl-nicotinic acid based 1,3,4-oxadiazoles: their synthesis and biological evaluation” (2013).
Converted amounts (≈) assume the structure as drawn.

Tests used:
Format in all cases: functional
Aspergillus niger = assay: Antimicrobial activity against Aspergillus niger MTCC 282 assessed as growth inhibition measured after overnight incubation by broth dilution method
[1] = test system: Mycobacterium tuberculosis; assay: Antitubercular activity against Mycobacterium tuberculosis H37Rv assessed as growth inhibition after 12 to 28 days by L.J. agar MIC method; conditions: for MIC: Mycobacterium tuberculosis, H37Rv
Candida albicans = assay: Antimicrobial activity against Candida albicans MTCC 227 assessed as growth inhibition measured after overnight incubation by broth dilution method
Streptococcus pyogenes = assay: Antimicrobial activity against Streptococcus pyogenes MTCC 442 assessed as growth inhibition measured after overnight incubation by broth dilution method
Aspergillus clavatus = assay: Antimicrobial activity against Aspergillus clavatus MTCC 1323 assessed as growth inhibition measured after overnight incubation by broth dilution method
Staphylococcus aureus = assay: Antimicrobial activity against Staphylococcus aureus MTCC 96 assessed as growth inhibition measured after overnight incubation by broth dilution method
Pseudomonas aeruginosa = assay: Antimicrobial activity against Pseudomonas aeruginosa MTCC 2488 assessed as growth inhibition measured after overnight incubation by broth dilution method
Escherichia coli = assay: Antimicrobial activity against Escherichia coli MTCC 443 assessed as growth inhibition measured after overnight incubation by broth dilution method

Row | SMILES | MIC (Aspergillus niger) [µg/mL] | growth inhibition (GI) [1] [%] | MIC [1] [µg/mL] | MIC (Candida albicans) [µg/mL] | MIC (Streptococcus pyogenes) [µg/mL] | MIC (Aspergillus clavatus) [µg/mL] | MIC (Staphylococcus aureus) [µg/mL] | MIC (Pseudomonas aeruginosa) [µg/mL] | MIC (Escherichia coli) [µg/mL]
1 | Cc1ccc2sc(-c3ccc(NC(=O)CCl)cc3)nc2c1 | 1000 (≈ 3160 µM) | 99 | 200 (≈ 631 µM) | 500 (≈ 1580 µM) | 100 (≈ 316 µM) | 500 (≈ 1580 µM) | 250 (≈ 789 µM) | 100 (≈ 316 µM) | 125 (≈ 395 µM)
2 | N#CSc1ccc2nc(NC(=O)CSc3nnc(-c4cccnc4SCc4ccccc4)o3)sc2c1 | 100 (≈ 182 µM) | 99 | 50 (≈ 91.1 µM) | 500 (≈ 911 µM) | 12.5 (≈ 22.8 µM) | 250 (≈ 456 µM) | 250 (≈ 456 µM) | 62.5 (≈ 114 µM) | 250 (≈ 456 µM)
3 | O=C(CSc1nnc(-c2cccnc2SCc2ccccc2)o1)Nn1cnnc1 | 1000 (≈ 2350 µM) | 99 | 25 (≈ 58.8 µM) | 100 (≈ 235 µM) | 125 (≈ 294 µM) | 500 (≈ 1180 µM) | 250 (≈ 588 µM) | 125 (≈ 294 µM) | 100 (≈ 235 µM)
4 | Cc1cnc(NC(=O)CCl)s1 | 500 (≈ 2620 µM) | 97 | 250 (≈ 1310 µM) | 200 (≈ 1050 µM) | 250 (≈ 1310 µM) | 500 (≈ 2620 µM) | 500 (≈ 2620 µM) | 250 (≈ 1310 µM) | 250 (≈ 1310 µM)
